Source: BigSolDB 2.1

`CCCCN(CCCC)CC(O)c1cc(Cl)cc2c1-c1ccc(Cl)cc1/C2=C/c1ccc(Cl)cc1` (stereo not given) gave a solubility (mole fraction) (in ethyl acetate, 278.15 K) of 0.00178, a solubility (mole fraction) (in ethyl acetate, 283.15 K) of 0.00234 and a solubility (mole fraction) (in ethyl acetate, 288.15 K) of 0.00317. For the same compound, the solubility (mole fraction) (in ethyl acetate, 293.15 K) was 0.00411, the solubility (mole fraction) (in ethyl acetate, 298.15 K) was 0.0054 and the solubility (mole fraction) (in ethyl acetate, 303.15 K) was 0.00693. For the same compound, the solubility (mole fraction) (in ethyl acetate, 308.15 K) was 0.00903, the solubility (mole fraction) (in ethyl acetate, 313.15 K) was 0.0116 and the solubility (mole fraction) (in ethyl acetate, 318.15 K) was 0.0152. It also gave a solubility (mole fraction) (in ethyl acetate, 323.15 K) of 0.0201, a solubility (mole fraction) (in methanol, 278.15 K) of 1.34e-05 and a solubility (mole fraction) (in methanol, 283.15 K) of 1.7e-05. The solubility (mole fraction) (in methanol, 288.15 K) was 2.28e-05, the solubility (mole fraction) (in methanol, 293.15 K) was 3.04e-05 and the solubility (mole fraction) (in methanol, 298.15 K) was 3.82e-05. It also gave a solubility (mole fraction) (in methanol, 303.15 K) of 4.97e-05, a solubility (mole fraction) (in methanol, 308.15 K) of 6.3e-05 and a solubility (mole fraction) (in methanol, 313.15 K) of 8.2e-05. The solubility (mole fraction) (in methanol, 318.15 K) was 0.000106, the solubility (mole fraction) (in methanol, 323.15 K) was 0.000136 and the solubility (mole fraction) (in n-butyl acetate, 278.15 K) was 0.00425. The solubility (mole fraction) (in n-butyl acetate, 283.15 K) was 0.00533, the solubility (mole fraction) (in n-butyl acetate, 288.15 K) was 0.00674 and the solubility (mole fraction) (in n-butyl acetate, 293.15 K) was 0.00866. It also gave a solubility (mole fraction) (in n-butyl acetate, 298.15 K) of 0.0108, a solubility (mole fraction) (in n-butyl acetate, 303.15 K) of 0.0138 and a solubility (mole fraction) (in n-butyl acetate, 308.15 K) of 0.0176. It also gave a solubility (mole fraction) (in n-butyl acetate, 313.15 K) of 0.0223, a solubility (mole fraction) (in n-butyl acetate, 318.15 K) of 0.0286 and a solubility (mole fraction) (in n-butyl acetate, 323.15 K) of 0.036. It also gave a solubility (mole fraction) (in n-pentyl acetate, 278.15 K) of 0.00475, a solubility (mole fraction) (in n-pentyl acetate, 283.15 K) of 0.00656 and a solubility (mole fraction) (in n-pentyl acetate, 288.15 K) of 0.00849. For the same compound, the solubility (mole fraction) (in n-pentyl acetate, 293.15 K) was 0.011, the solubility (mole fraction) (in n-pentyl acetate, 298.15 K) was 0.0137 and the solubility (mole fraction) (in n-pentyl acetate, 303.15 K) was 0.0168. The solubility (mole fraction) (in n-pentyl acetate, 308.15 K) was 0.0212, the solubility (mole fraction) (in n-pentyl acetate, 313.15 K) was 0.0253 and the solubility (mole fraction) (in n-pentyl acetate, 318.15 K) was 0.0327. For the same compound, the solubility (mole fraction) (in n-pentyl acetate, 323.15 K) was 0.0407, the solubility (mole fraction) (in n-propyl acetate, 278.15 K) was 0.00281 and the solubility (mole fraction) (in n-propyl acetate, 283.15 K) was 0.00366. It also gave a solubility (mole fraction) (in n-propyl acetate, 288.15 K) of 0.00486, a solubility (mole fraction) (in n-propyl acetate, 293.15 K) of 0.00656 and a solubility (mole fraction) (in n-propyl acetate, 298.15 K) of 0.00841. It also gave a solubility (mole fraction) (in n-propyl acetate, 303.15 K) of 0.0109, a solubility (mole fraction) (in n-propyl acetate, 308.15 K) of 0.0139 and a solubility (mole fraction) (in n-propyl acetate, 313.15 K) of 0.018. The solubility (mole fraction) (in n-propyl acetate, 318.15 K) was 0.0231 and the solubility (mole fraction) (in n-propyl acetate, 323.15 K) was 0.0305.
